This note sets out measurements from patent publication US20040048376A1, “Methods for modulating splicing and/or alternative splicing, and for identifying alternatively spliced units in genes” (priority 2000, published 2004).

This assay has as its system constitutive splicing in nuclear extracts. As to the kind of experiment: Constitutive (generic) splicing of a model pre-mRNA in nuclear extracts. The following applies: up to 2.5% DMSO. Type of assay: biochemical, human. From the text:
DMSO was shown not to affect constitutive (generic) splicing in nuclear extracts. […] When distal 5′ splice site selection is promoted by an hnRNP A1 independent mechanism (e.g., secondary structure formation), 5′ splice site selection is not affected by DMSO. […] This effect is also specific since the addition of equivalent amounts of GST or gene 32 protein has no effect when added to DMSO-containing extracts. In addition, DMSO affects generic splicing in S-100 extracts which are post-nuclear extracts containing residual amounts of SR proteins and U2AF proteins.

In the case of `C[S+](C)[O-]` [DMSO, Dimethyl sulfoxide], the “constitutive splicing of model pre-mRNA” value was “remains spliced efficiently”.
